In ChEMBL document CHEMBL6096636 (Bioorg Med Chem, 2024):

How the values were obtained:
[1] = system: Plasmodium falciparum; assay: microbe, parasite or virus in culture; details: 3D7, 72 h
Description: Antimalarial activity against erythrocytic stage of Plasmodium falciparum 3D7 assessed as inhibition of growth incubated for 72 hrs by SYBR green I based assay

[2] = Toxicity in female mouse model infected with erythrocytic stage of Plasmodium yoelli assessed as animal death at 30 mg/kg, ip pre-infected with parasite followed by twice daily compound administration from day 3 to 6; type: organism-based; details: in vivo, 96 h, time 4 day
[3] = Apparent volume of distribution during terminal phase in female Balb/c mouse at 5 mg/kg, ip measured after 24 hrs by LC-MS/MS analysis; type: ADME, organism-based; details: in vivo, read-out: Vz/F
[4] = Tmax in female Balb/c mouse at 5 mg/kg, ip measured after 24 hrs by LC-MS/MS analysis; type: ADME, organism-based; details: in vivo
[5] = target: Histone deacetylase 3 (Homo sapiens, UniProt O15379); assay: Inhibition of recombinant human HDAC3 using Ac-peptide as substrate preincubated for 15 mins followed by substrate addition and measured after 60 mins
Sequence of Histone deacetylase 3 (O15379 whole entry): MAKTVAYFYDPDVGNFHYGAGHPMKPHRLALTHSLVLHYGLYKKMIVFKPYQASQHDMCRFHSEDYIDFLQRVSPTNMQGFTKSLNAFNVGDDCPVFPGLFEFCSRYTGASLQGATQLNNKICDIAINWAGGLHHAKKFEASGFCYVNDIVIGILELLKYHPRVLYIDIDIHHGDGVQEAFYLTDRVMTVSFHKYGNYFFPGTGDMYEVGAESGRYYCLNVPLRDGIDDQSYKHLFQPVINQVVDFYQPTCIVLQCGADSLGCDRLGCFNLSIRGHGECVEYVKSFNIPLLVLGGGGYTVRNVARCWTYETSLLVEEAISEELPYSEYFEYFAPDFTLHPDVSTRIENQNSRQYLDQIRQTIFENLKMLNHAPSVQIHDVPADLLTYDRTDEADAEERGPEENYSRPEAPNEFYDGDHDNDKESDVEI

[6] = target: T1, NAD-dependent protein deacetylase sirtuin-2 (Homo sapiens, UniProt Q8IXJ6); assay: Inhibition of recombinant human SIRT2 using Ac-peptide as substrate preincubated for 15 mins followed by substrate addition for 240 mins and measured after 120 mins of trypsin addition
T1 sequence (Q8IXJ6 whole entry): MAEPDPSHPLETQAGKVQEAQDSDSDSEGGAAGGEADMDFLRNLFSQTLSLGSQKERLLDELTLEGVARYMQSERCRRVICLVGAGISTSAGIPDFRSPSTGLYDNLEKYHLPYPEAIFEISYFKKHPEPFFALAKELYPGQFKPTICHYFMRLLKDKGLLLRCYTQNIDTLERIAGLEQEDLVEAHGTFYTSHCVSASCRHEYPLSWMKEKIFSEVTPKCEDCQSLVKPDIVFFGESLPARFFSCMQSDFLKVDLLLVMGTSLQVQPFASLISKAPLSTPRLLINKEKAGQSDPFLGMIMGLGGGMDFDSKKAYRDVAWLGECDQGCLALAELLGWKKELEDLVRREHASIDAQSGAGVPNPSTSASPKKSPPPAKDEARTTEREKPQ

Q: For `Cc1ccc2c(CN[C@H]3CC[C@@H](Nc4ncc(C(=O)NO)cn4)CC3)cn(C)c2c1.Cl`, which IC50 [1] is on record?
A: Its IC50 is 11.3 nM.

Q: And the Activity [2]?
A: The Activity was “Toxic”.

Q: What about the Vd/F [3] of the same compound?
A: The Vd/F was 16.1 L/kg.

Q: What about the Tmax [4] of the same compound?
A: The Tmax was 15 min.

Q: What about the IC50 [5] of the same compound?
A: The IC50 was 23 nM.

Q: And the IC50 [6]?
A: The IC50 was greater than 10000 nM.
